Marks after values point to notes of the source that are not given here. Values belong to the compound of their own block, whether it stands above or below them.
Columns and labels:
[1] = pH recovery of calcium carbonate slurry after lowering to pH 8 with CO2 enriched air (Example 1); type: physicochemical
Description: The pH of the aqueous suspension may be measured using any conventional pH meter. […] This may be carried out using either a manual or automatic method, depending on the type of instrument being used.
(§1) The pH of the aqueous suspension may be measured by: • mixing a sample of the aqueous suspension to ensure homogeneity, by using either the bench stirrer or the rotating rollers, or by shaking the sample container and contents vigorously; • measuring the temperature of the sample and adjusting the temperature to 22° C.; • removing the pH electrode from its deionised water storage solution and immersing it carefully into the test slurry; • waiting until a stable pH reading is obtained; • recording the pH value of the undisturbed slurry. Viscosity
1 kg samples of a calcium carbonate slurry having 78 wt % solids and 60% of particles less than 2 μm in size (measured using a micrometrics sedigraph) were adjusted to […] at room temperature using 2-amino-2-methyl-1-propanol (AMP) or dimethylethanolamine (DMEA). The control sample was adjusted to pH 10 using dilute sodium hydroxide solution. The solids content of the samples was adjusted using deionised water.
The pH of each slurry was lowered to pH 8 by aspirating the sample with carbon dioxide (CO2) enriched air (2%) using a flow rate of 5 mL/min. When pH 8 had been reached, aspiration of the sample was stopped.
Recovery of the sample pH was then monitored and recorded over subsequent days using the Mettler Toledo FE20 pH meter as described above in the detailed description.

[2] = pH of calcium carbonate slurry after sequential 50 mg/kg additions (Example 2); type: physicochemical; settings: for δ pH: change per 50 mg/kg aliquot
Description: The pH of the aqueous suspension may be measured using any conventional pH meter. For example, the pH of the aqueous suspension may be measured using the Digital pH meter “Mettler Toledo FE20”, which has been calibrated in accordance with the manufacturer's instructions, using buffer solutions with nominal values of 4, 7 and 9. This may be carried out using either a manual or automatic method, depending on the type of instrument being used.
as §1
50 mg/kg aliquots of either AMP or DMEA were sequentially added to 250 g calcium carbonate slurry samples having 78 wt % solids and 60% of particles less than 2 μm in size (measured using a micrometrics sedigraph). In this context, 50 mg/kg means that 50 mg of AMP or DMEA was added per kg of dry inorganic particulate material in the aqueous suspension. The pH of the samples was measured after stirring immediately after each 50 mg/kg addition.

[3] = system: microbes in contaminated calcium carbonate slurry; test: Total viable count of contaminated calcium carbonate slurry (Examples 3-5); type: cell-based, bacteria; settings: for level of microbes compared with samples comprising no DMEA: 400, 500 and 600 ppm DMEA alone
Protocol: The microbe level, for example the total viable count, of the aqueous suspension may be measured using growth medium such as Petrifilm or dipslides. The material under test (for example the aqueous suspension of inorganic particulate material) is diluted with a buffer solution and a measured amount of the dilution is placed on a growth medium (for example, Petrifilm). This is incubated for 48 hours, after which time the number of colonies of bacteria is counted. Each colony has developed from one single bacterium or colony forming unit (cfu). Therefore, the number of colonies, multiplied by the dilution factor, is equivalent to the number of original colony forming units per gram or millilitre of slurry.
For example, the total viable count of an aqueous suspension may be measured by: • mixing a sample of aqueous suspension of inorganic particulate material thoroughly by shaking its container vigorously; • measuring the required weight or volume of the sample. For example, if the results are to be recorded as colony forming units per g (cfu/g), a container containing the buffer solution is placed on the balance and the balance is set to zero. Approximately 1 g of slurry is weighed into the container and its weight is recorded to within 0.1 g. The contents of the container are mixed by shaking it vigorously. If the results are to be recorded as colony forming units per ml (cfu/ml), 1 ml of slurry may be added to a container containing the buffer solution. The contents of the container are mixed by shaking it vigorously; • distributing the diluted sample evenly on the growth medium. The plate may be left undisturbed for at least one minute to allow the gel to solidify; • incubating the contents of the growth medium (for example Petrifilm plates) for 48 hours±2 hours at 30° C.±2° C.; • counting the number of colonies on the growth medium (for example Petrifilm); • calculating the total viable count of the sample by multiplying the number of colonies on the growth medium (for example Petrifilm) by the dilution factor and dividing this by the weight or volume of the sample which was plated on the growth medium. For example:
(§2) Samples of a contaminated calcium carbonate slurry having 78 wt % solids and 60% of particles less than 2 μm in size (measured using a micrometrics sedigraph) comprising various amounts of the biocide glutaraldehyde, and DMEA were prepared. The total viable count (cfu/ml) of each sample was measured after 0, 1 and 7 days by the method described above in the detailed description.
Samples of a contaminated calcium carbonate slurry having 78 wt % solids and 60% of particles less than 2 μm in size (measured using a micrometrics sedigraph) comprising various amounts of DMEA and the biocides benzisothiazolinone (BIT) and methylisothiazolinone (MIT) were prepared. The total viable count (cfu/ml) of each sample was measured after 0, 1 and 7 days by the method described above in the detailed description.
as §2, with “of” for “of the biocide glutaraldehyde, and”

[4] = day 0.5, lowered to pH 8 with CO2
[5] = total 50 mg/kg of chemical added
[6] = total 100 mg/kg of chemical added
[7] = total 150 mg/kg of chemical added
[8] = total 200 mg/kg of chemical added
[9] = total 250 mg/kg of chemical added
[10] = total 300 mg/kg of chemical added
[11] = total 350 mg/kg of chemical added
[12] = total 400 mg/kg of chemical added
[13] = total 450 mg/kg of chemical added
[14] = total 500 mg/kg of chemical added
[15] = total 550 mg/kg of chemical added
[16] = total 600 mg/kg of chemical added

pH of sample ([1]; day 0, before CO2 aspiration): 9.50
δ pH ([1]; day 0.5): 0.00
pH of sample [1, 4]: 8.00
pH of sample ([1]; day 1): 8.16
δ pH ([1]; day 1): 0.13
pH of sample ([1]; day 2): 8.26
δ pH ([1]; day 2): 0.23
pH of sample ([1]; day 16): 8.46
δ pH ([1]; day 16): 0.43
pH of sample ([1]; day 20): 8.50
δ pH ([1]; day 20): 0.47
pH of sample ([1]; day 23): 8.52
δ pH ([1]; day 23): 0.49
pH of sample ([1]; day 24): 8.58
δ pH ([1]; day 24): 0.55
pH of sample ([1]; day 27): 8.61
δ pH ([1]; day 27): 0.58
pH of sample ([1]; day 28): 8.66
δ pH ([1]; day 28): 0.66
δ pH ([2]; total 50 mg/kg added): 0.27
pH of sample [2, 5]: 9.28
δ pH ([2]; total 100 mg/kg added): 0.21
pH of sample [2, 6]: 9.49
δ pH ([2]; total 150 mg/kg added): 0.15
pH of sample [2, 7]: 9.64
δ pH ([2]; total 200 mg/kg added): 0.14
pH of sample [2, 8]: 9.78
δ pH ([2]; total 250 mg/kg added): 0.14
pH of sample [2, 9]: 9.92
δ pH ([2]; total 300 mg/kg added): 0.09
pH of sample [2, 10]: 10.01
δ pH ([2]; total 350 mg/kg added): 0.07
pH of sample [2, 11]: 10.08
δ pH ([2]; total 400 mg/kg added): 0.07
pH of sample [2, 12]: 10.15
δ pH ([2]; total 450 mg/kg added): 0.07
pH of sample [2, 13]: 10.22
δ pH ([2]; total 500 mg/kg added): 0.05
pH of sample [2, 14]: 10.27
δ pH ([2]; total 550 mg/kg added): 0.05
pH of sample [2, 15]: 10.32
δ pH ([2]; total 600 mg/kg added): 0.05
pH of sample [2, 16]: 10.37
SMILES: CC(C)(N)CO [AMP, 2-amino-2-methyl-1-propanol, reference compound]

SMILES: CN(C)CCO [DMEA, Dimethylethanolamine]
pH of sample ([1]; day 0, before CO2 aspiration): 10.00
δ pH ([1]; day 0.5): 0.00
pH of sample [1, 4]: 8.00
pH of sample ([1]; day 1): 8.22
δ pH ([1]; day 1): 0.22
pH of sample ([1]; day 2): 8.28
δ pH ([1]; day 2): 0.28
pH of sample ([1]; day 3): 8.35
δ pH ([1]; day 3): 0.35
pH of sample ([1]; day 4): 8.43
δ pH ([1]; day 4): 0.43
pH of sample ([1]; day 9): 8.52
δ pH ([1]; day 9): 0.52
pH of sample ([1]; day 11): 8.55
δ pH ([1]; day 11): 0.55
pH of sample ([1]; day 16): 8.58
δ pH ([1]; day 16): 0.58
pH of sample ([1]; day 20): 8.60
δ pH ([1]; day 20): 0.60
pH of sample ([1]; day 23): 8.64
δ pH ([1]; day 23): 0.64
pH of sample ([1]; day 24): 8.65
δ pH ([1]; day 24): 0.65
pH of sample ([1]; day 27): 8.70
δ pH ([1]; day 27): 0.70
pH of sample ([1]; day 28): 8.79
δ pH ([1]; day 28): 0.79
pH recovery compared with sample comprising AMP and control sample ([1]; recovery from pH 8): increased more rapidly and to a higher level
pH the sample increased to ([1]; recovery from pH 8, end of monitoring, control sample 8.3): 8.8
δ pH ([2]; total 50 mg/kg added): 0.25
pH of sample [2, 5]: 9.19
δ pH ([2]; total 100 mg/kg added): 0.17
pH of sample [2, 6]: 9.36
δ pH ([2]; total 150 mg/kg added): 0.13
pH of sample [2, 7]: 9.49
δ pH ([2]; total 200 mg/kg added): 0.11
pH of sample [2, 8]: 9.60
δ pH ([2]; total 250 mg/kg added): 0.07
pH of sample [2, 9]: 9.67
δ pH ([2]; total 300 mg/kg added): 0.07
pH of sample [2, 10]: 9.74
δ pH ([2]; total 350 mg/kg added): 0.06
pH of sample [2, 11]: 9.80
δ pH ([2]; total 400 mg/kg added): 0.05
pH of sample [2, 12]: 9.85
δ pH ([2]; total 450 mg/kg added): 0.05
pH of sample [2, 13]: 9.90
δ pH ([2]; total 500 mg/kg added): 0.05
pH of sample [2, 14]: 9.95
δ pH ([2]; total 550 mg/kg added): 0.04
pH of sample [2, 15]: 9.99
δ pH ([2]; total 600 mg/kg added): 0.02
pH of sample [2, 16]: 10.01
level of microbes compared with samples comprising no DMEA ([3]; after 0 days): slightly reduced the level of microbes
level of microbes compared with samples comprising no DMEA ([3]; after 1 day and 7 days): further reduced the level of microbes
Total Viable Count (cfu/ml) of sample as 10^x, x ([3]; 400 ppm DMEA in sample, 0 days after preparation): 5 cfu/ml as 10^x
Total Viable Count (cfu/ml) of sample as 10^x, x ([3]; 400 ppm DMEA in sample, 1 day after preparation): 4 cfu/ml as 10^x
Total Viable Count (cfu/ml) of sample as 10^x, x ([3]; 400 ppm DMEA in sample, 7 days after preparation): 0.1 cfu/ml as 10^x
Total Viable Count (cfu/ml) of sample as 10^x, x ([3]; 500 ppm DMEA in sample, 0 days after preparation): 5 cfu/ml as 10^x
Total Viable Count (cfu/ml) of sample as 10^x, x ([3]; 500 ppm DMEA in sample, 1 day after preparation): 4 cfu/ml as 10^x
Total Viable Count (cfu/ml) of sample as 10^x, x ([3]; 500 ppm DMEA in sample, 7 days after preparation): 0.1 cfu/ml as 10^x
Total Viable Count (cfu/ml) of sample as 10^x, x ([3]; 600 ppm DMEA in sample, 0 days after preparation): 5 cfu/ml as 10^x
Total Viable Count (cfu/ml) of sample as 10^x, x ([3]; 600 ppm DMEA in sample, 1 day after preparation): 4 cfu/ml as 10^x
Total Viable Count (cfu/ml) of sample as 10^x, x ([3]; 600 ppm DMEA in sample, 7 days after preparation): 0.1 cfu/ml as 10^x
reducing total viable count compared with glutaraldehyde alone ([3]; DMEA in combination with 50, 100 or 400 ppm glutaraldehyde, after 1 and 7 days): at least as effective
total viable count compared with glutaraldehyde alone ([3]; DMEA in combination with 50 ppm glutaraldehyde, after 0 days): lower total viable count
total viable count compared with BIT/MIT but no DMEA ([3]; DMEA in combination with 81, 162 or 650 ppm BIT/MIT, after 1 day and 7 days): lower total viable count

— patent publication US10590276B2, “Aqueous suspension of inorganic particulate material” (ImerTech SAS, priority 2013, dated 2020)
